The subject of test [1] is Klebsiella pneumoniae expressing VIM-1 (IHMA599644). Briefly: Antibiotic potentiation activity: synergistic concentration (MITC95) with imipenem, growth by OD600. The note with it: 95% inhibition of bacterial growth, strain IHMA599644. It counts as cell-based. In outline: (§1)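 MITC95 = lowest inhibitor concentration giving 95% growth inhibition, read by absorbance after 22–24 h at 35° C. Compound range 200 μM to 0.195 μM, imipenem fixed at 1 or 4 μg/ml, bacteria in 1.1×CAMHB from saline suspension diluted 1:100.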

The test system of test [2] is Escherichia coli expressing NDM-1 (CLB30016). The test is described as above. In kind it is cell-based. Particulars: 95% inhibition of bacterial growth, strain CLB30016. In outline:
as §1

Test [3] has as its system Serratia marcescens expressing IMP-1 (CL5741). Described as above. Particulars: 95% inhibition of bacterial growth, strain CL5741. In kind it is cell-based. In outline:
as §1

Test [4] concerns the target IMP-1 (Serratia marcescens, UniProt P52699). Briefly: Enzyme activity: determination of IC50, fluorescence assay with CCF2-FA substrate. In kind it is biochemical. Particulars: enzyme 2 pM, CCF2-FA 1.25 μM, 2 hours at 25° C.; read-out: IMP1 IC50. In outline: (§2)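 100 mM KH2PO4 pH 7 + 0.005% Tween-20 + 10 μM ZnSO4; CCF2-FA 1.25 μM; NDM-1 1 pM, IMP-1 2 pM, VIM-1 30 pM; cpd 20–0.00063 μM final, DMSO 1:50. 2 h, 25° C. Ex 405/em 460 nm; IC50, 4-param fit.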

Test [5] concerns the target VIM-1 (Pseudomonas aeruginosa, UniProt A0A0F7KYQ8). The description is as above. In kind it is biochemical. The note with it: enzyme 30 pM, CCF2-FA 1.25 μM, 2 hours at 25° C.; read-out: VIM1 IC50. In outline:
as §2

Test [6] addresses NDM-1 (Klebsiella pneumoniae, UniProt C7C422). The test is described as above. In kind it is biochemical. Particulars: CCF2-FA 1.25 μM, 2 hours at 25° C. In outline: as §2
Setting [7] is: enzyme 1 pM, read-out: NDM1 IC50.

Like-named read-outs stand apart in the source and are kept apart here.

Sequence of IMP-1 (P52699 19-246, looked up, species assumed): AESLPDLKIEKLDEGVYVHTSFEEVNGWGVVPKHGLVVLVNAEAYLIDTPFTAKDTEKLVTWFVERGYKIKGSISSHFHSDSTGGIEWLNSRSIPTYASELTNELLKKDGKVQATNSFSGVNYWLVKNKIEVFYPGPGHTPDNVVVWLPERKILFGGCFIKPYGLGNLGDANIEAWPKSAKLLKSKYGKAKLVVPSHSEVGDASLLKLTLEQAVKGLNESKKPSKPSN
Sequence of NDM-1 (C7C422 29-270, looked up, species assumed): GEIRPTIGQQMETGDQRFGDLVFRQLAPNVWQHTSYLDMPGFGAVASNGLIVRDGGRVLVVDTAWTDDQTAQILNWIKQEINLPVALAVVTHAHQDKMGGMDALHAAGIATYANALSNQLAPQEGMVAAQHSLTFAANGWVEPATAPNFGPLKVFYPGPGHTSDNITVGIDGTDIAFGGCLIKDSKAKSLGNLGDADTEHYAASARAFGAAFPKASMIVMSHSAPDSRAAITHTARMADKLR

Take `CCC[C@H](C(=O)O)[C@H](Cc1ccc(-c2ccc3ccnc(C#N)c3c2)nc1)c1nnn[nH]1` [Example 162, (2S)-2-[(1S)-2-[6-(1-cyanoisoquinolin-7-yl)pyridin-3-yl]-1-(1H-tetrazol-5-yl)ethyl]pentanoic acid]: the “VIM1 KP599644 MITC95” value in test [1] turned out to be 125 µM. Moreover, the “NDM1 EC30016 MITC95” value in test [2] came to 75 µM. The “IMP1 SM5741 MITC95” value in test [3] is 12.5 µM. The figures for the concentration for half-maximal inhibition (IC50) in test [4], in test [5] and in test [6] (setting [7]) were 560 nM, 3.7 nM and 22 nM, respectively.

For `CCC[C@H](C(=O)O)[C@H](Cc1ccc(-c2cnc(N(C)C)nc2)nc1)c1nnn[nH]1` [Example 163, (2S)-2-[(1S)-2-{6-[2-(dimethylamino)pyrimidin-5-yl]pyridin-3-yl}-1-(1H-tetrazol-5-yl)ethyl]pentanoic acid], the “VIM1 KP599644 MITC95” value in test [1] amounted to 125 µM. Besides, the “NDM1 EC30016 MITC95” value in test [2] amounted to 38 µM. For the same compound, the “IMP1 SM5741 MITC95” value in test [3] amounted to 16 µM. For the same compound, the IC50 in test [4] is 600 nM; in test [5], 3.8 nM; in test [6] (setting [7]) it was 25 nM.

Regarding `CCC[C@H](C(=O)O)[C@H](Cc1ccc(C2=CCNC2)nc1)c1nnn[nH]1` [Example 164, (2S)-2-[(1S)-2-[6-(2,5-dihydro-1H-pyrrol-3-yl)pyridin-3-yl]-1-(1H-tetrazol-5-yl)ethyl]pentanoic acid], the “VIM1 KP599644 MITC95” value in test [1] was found to be 18.8 µM. Moreover, in test [2], the “NDM1 EC30016 MITC95” value is 9.4 µM. Besides, in test [3], the “IMP1 SM5741 MITC95” value stood at 50 µM. Further, the figures for the IC50 in test [4], in test [5] and in test [6] (setting [7]) were 13000 nM, 3.9 nM and 530 nM, respectively.

Regarding `CCC[C@H](C(=O)O)[C@H](Cc1ccc(C2=CCNCC2)cn1)c1nnn[nH]1` [Example 165, (2S)-2-[(1S)-2-(1′,2′,3′,6′-tetrahydro-3,4′-bipyridin-6-yl)-1-(1H-tetrazol-5-yl)ethyl]pentanoic acid], the “VIM1 KP599644 MITC95” value in test [1] was 25 µM. Besides, the “NDM1 EC30016 MITC95” value in test [2] was determined as 3.1 µM. Also, the “IMP1 SM5741 MITC95” value in test [3] was 150 µM. The IC50 in test [4] was greater than 20000 nM; in test [5], 68 nM; in test [6] (NDM1 IC50, enzyme 1 pM), 1500 nM.

Regarding `CCC[C@H](C(=O)O)[C@H](Cc1ccc(-c2ccc(C3(O)CNC3)cc2)cn1)c1nnn[nH]1` [Example 166, (2S)-2-[(1S)-2-{5-[4-(3-hydroxyazetidin-3-yl)phenyl]pyridin-2-yl}-1-(1H-tetrazol-5-yl)ethyl]pentanoic acid], the “VIM1 KP599644 MITC95” value in test [1] turned out to be 38 µM. Besides, in test [2], the “NDM1 EC30016 MITC95” value is 9.4 µM. Besides, the “IMP1 SM5741 MITC95” value in test [3] was found to be 100 µM. The IC50 in test [4] stood at 9300 nM; in test [5], 170 nM; in test [6] (setting [7]), 500 nM.

`CCC[C@H](C(=O)O)[C@H](Cc1ccc(-c2ccc(N)nc2)cn1)c1nnn[nH]1` [Example 167, (2S)-2-[(1S)-2-(6′-amino-3,3′-bipyridin-6-yl)-1-(1H-tetrazol-5-yl)ethyl]pentanoic acid]: the “VIM1 KP599644 MITC95” value in test [1] was determined as 100 µM. In test [2], the “NDM1 EC30016 MITC95” value was determined as 9.4 µM. Also, in test [3], the “IMP1 SM5741 MITC95” value is greater than 200 µM. Moreover, the IC50 in test [4] was determined as 5700 nM; in test [5], 140 nM; in test [6] (setting [7]), 200 nM.

As for `CCC[C@H](C(=O)O)[C@H](Cc1ccc(-c2ccc3[nH]ncc3c2)cn1)c1nnn[nH]1` [Example 168, (2S)-2-[(1S)-2-[5-(1H-indazol-5-yl)pyridin-2-yl]-1-(1H-tetrazol-5-yl)ethyl]pentanoic acid], the “VIM1 KP599644 MITC95” value in test [1] is greater than 200 µM. In addition, the “NDM1 EC30016 MITC95” value in test [2] amounted to 25 µM. Also, the “IMP1 SM5741 MITC95” value in test [3] stood at 200 µM. For the same compound, the IC50 in test [4] came out at 3000 nM; in test [5] it was 53 nM; in test [6] (setting [7]), 100 nM.

For `CCC[C@H](C(=O)O)[C@H](Cc1ccc(-c2ccc3c(c2)OCC(=O)N3)cn1)c1nnn[nH]1` [Example 169, (2S)-2-[(1S)-2-[5-(3-oxo-3,4-dihydro-2H-1,4-benzoxazin-7-yl)pyridin-2-yl]-1-(1H-tetrazol-5-yl)ethyl]pentanoic acid], the “VIM1 KP599644 MITC95” value in test [1] was 200 µM. Moreover, the “NDM1 EC30016 MITC95” value in test [2] was found to be 18.8 µM. Moreover, the “IMP1 SM5741 MITC95” value in test [3] was 100 µM. The IC50 came out at 1600 nM in test [4], 38 nM in test [5] and 88 nM in test [6] (setting [7]).

For the compound `CC(C)C[C@H](C(=O)O)[C@H](Cc1ccc(C2=CCNCC2)cn1)c1nn[nH]n1` [Example 170, (2S)-4-methyl-2-[(1S)-2-(1′,2′,3′,6′-tetrahydro-3,4′-bipyridin-6-yl)-1-(2H-tetrazol-5-yl)ethyl]pentanoic acid], in test [1], the “VIM1 KP599644 MITC95” value is 12.5 µM. Further, the “NDM1 EC30016 MITC95” value in test [2] amounted to 1.6 µM. Moreover, the “IMP1 SM5741 MITC95” value in test [3] came out at 50 µM. The IC50 worked out at 3600 nM in test [4]; 22 nM in test [5]; 250 nM in test [6] (NDM1 IC50, enzyme 1 pM).

`CC(C)C[C@H](C(=O)O)[C@H](Cc1ccc(-c2ccc(CO)cc2)cn1)c1nn[nH]n1` [Example 171, (2S)-2-[(1S)-2-{5-[4-(hydroxymethyl)phenyl]pyridin-2-yl}-1-(2H-tetrazol-5-yl)ethyl]-4-methylpentanoic acid]: in test [1], the “VIM1 KP599644 MITC95” value worked out at 200 µM. Further, in test [2], the “NDM1 EC30016 MITC95” value was found to be 75 µM. Further, the “IMP1 SM5741 MITC95” value in test [3] is 62 µM. In addition, the half-inhibitory concentration (IC50) amounted to 740 nM in test [4], 56 nM in test [5] and 47 nM in test [6] (setting [7]).

For the compound `CC(C)C[C@H](C(=O)O)[C@H](Cc1ccc(-c2ccc(N)nc2)cn1)c1nn[nH]n1` [Example 172, (2S)-2-[(1S)-2-(6′-amino-3,3′-bipyridin-6-yl)-1-(2H-tetrazol-5-yl)ethyl]-4-methylpentanoic acid], the “VIM1 KP599644 MITC95” value in test [1] worked out at 50 µM. In addition, in test [2], the “NDM1 EC30016 MITC95” value was found to be 12.5 µM. Moreover, the “IMP1 SM5741 MITC95” value in test [3] came out at 38 µM. In addition, the IC50 in test [4] came to 800 nM; in test [5] it was 49 nM; in test [6] (setting [7]), 52 nM.

Consider `CC(C)C[C@H](C(=O)O)[C@H](Cc1ccc(-c2ccc([C@@H]3OC(=O)N[C@@H]3C)cc2)cn1)c1nn[nH]n1` [Example 173, (2S)-4-methyl-2-[(1S)-2-(5-{4-[(4R,5S)-4-methyl-2-oxo-1,3-oxazolidin-5-yl]phenyl}pyridin-2-yl)-1-(2H-tetrazol-5-yl)ethyl]pentanoic acid], for which the “VIM1 KP599644 MITC95” value in test [1] is greater than 200 µM. Also, the “NDM1 EC30016 MITC95” value in test [2] stood at 25 µM. For the same compound, the “IMP1 SM5741 MITC95” value in test [3] worked out at 31 µM. Besides, the IC50 in test [4] amounted to 500 nM; in test [5] it was 110 nM; in test [6] (setting [7]), 27 nM.

With `CC(C)C[C@H](C(=O)O)[C@H](Cc1ccc(-c2ccc(CN)cc2)cn1)c1nn[nH]n1` [Example 174, (2S)-2-[(1S)-2-{5-[4-(aminomethyl)phenyl]pyridin-2-yl}-1-(2H-tetrazol-5-yl)ethyl]-4-methylpentanoic acid], the “VIM1 KP599644 MITC95” value in test [1] was found to be 25 µM. For the same compound, the “NDM1 EC30016 MITC95” value in test [2] stood at 9.4 µM. Moreover, the “IMP1 SM5741 MITC95” value in test [3] is 50 µM. Also, the IC50 is 2700 nM in test [4], 110 nM in test [5] and 240 nM in test [6] (setting [7]).

On to `CC(C)C[C@H](C(=O)O)[C@H](Cc1ccc(-c2ccc(S(N)(=O)=O)cc2)cn1)c1nn[nH]n1` [Example 175, (2S)-4-methyl-2-[(1S)-2-[5-(4-sulfamoylphenyl)pyridin-2-yl]-1-(2H-tetrazol-5-yl)ethyl]pentanoic acid], for which the “VIM1 KP599644 MITC95” value in test [1] was 50 µM. Besides, in test [2], the “NDM1 EC30016 MITC95” value stood at 18.8 µM. For the same compound, in test [3], the “IMP1 SM5741 MITC95” value stood at 75 µM. In addition, the IC50 in test [4] worked out at 840 nM; in test [5], 12 nM; in test [6] (setting [7]) it was 19 nM.

As for `CC(C)C[C@H](C(=O)O)[C@H](Cc1ccc(-c2ccc(N)nc2)nc1)c1nn[nH]n1` [Example 176, (2S)-2-[(1S)-2-(6′-amino-2,3′-bipyridin-5-yl)-1-(2H-tetrazol-5-yl)ethyl]-4-methylpentanoic acid], in test [1], the “VIM1 KP599644 MITC95” value was 25 µM. In addition, the “NDM1 EC30016 MITC95” value in test [2] turned out to be 16 µM. Moreover, the “IMP1 SM5741 MITC95” value in test [3] turned out to be 6.2 µM. Also, the half-maximal inhibitory concentration (IC50) in test [4] worked out at 150 nM; in test [5], 5.7 nM; in test [6] (setting [7]), 25 nM.

For `CC(C)C[C@H](C(=O)O)[C@H](Cc1ccc(-c2ccc(CO)cc2)nc1)c1nn[nH]n1` [Example 177, (2S)-2-[(1S)-2-{6-[4-(hydroxymethyl)phenyl]pyridin-3-yl}-1-(2H-tetrazol-5-yl)ethyl]-4-methylpentanoic acid], the “VIM1 KP599644 MITC95” value in test [1] amounted to 38 µM. Further, the “NDM1 EC30016 MITC95” value in test [2] worked out at 12.5 µM. Moreover, in test [3], the “IMP1 SM5741 MITC95” value is 4.7 µM. The IC50 in test [4] turned out to be 140 nM; in test [5], 5.1 nM; in test [6] (setting [7]) it was 40 nM.

(Values after patent publication US9839642B2, “Beta-tetrazolyl-propionic acids as metallo-beta-lactamase inhibitors” (priority 2014, dated 2017).)
